≈ marks a conversion by molar mass, not a printed value. Calls of active or inactive are those of the source. The rule behind the calls is not given here.
What was measured:
[1] = molecular target: T1, 5-hydroxytryptamine receptor 1A (Homo sapiens, UniProt P08908); test: Displacement of [3H]-[…] from human 5-HT1A receptor expressed in CHO-K1 cells membrane by scintillation counter analysis; type: cell membranes
T1 sequence (P08908 whole entry): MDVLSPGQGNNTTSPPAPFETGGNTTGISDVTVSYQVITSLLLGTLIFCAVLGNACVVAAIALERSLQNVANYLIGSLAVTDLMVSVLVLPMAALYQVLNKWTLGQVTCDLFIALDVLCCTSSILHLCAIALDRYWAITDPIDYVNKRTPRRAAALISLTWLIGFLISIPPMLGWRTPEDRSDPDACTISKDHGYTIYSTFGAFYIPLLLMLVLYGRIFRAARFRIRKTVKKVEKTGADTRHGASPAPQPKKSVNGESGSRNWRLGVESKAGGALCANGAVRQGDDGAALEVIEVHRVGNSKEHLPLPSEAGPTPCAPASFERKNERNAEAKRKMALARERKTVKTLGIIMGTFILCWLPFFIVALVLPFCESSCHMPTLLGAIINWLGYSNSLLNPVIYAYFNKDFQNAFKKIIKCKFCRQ

[2] = molecular target: T2, cAMP and cAMP-inhibited cGMP 3',5'-cyclic phosphodiesterase 10A (Homo sapiens, UniProt Q9Y233); test: Inhibition of PDE10A (unknown origin) at 10 uM preincubated for 20 mins followed by substrate addition and measured after 1 hr by PEDlight AMP detection reagent based luminescence assay relative to control; conditions: time 80.0 min
[3] = molecular target: 5-hydroxytryptamine receptor 7 (Homo sapiens, UniProt P34969); test: Displacement of [3H]-5-CT from human 5-HT7 receptor expressed in CHO-K1 cells membrane by scintillation counter analysis; type: cell membranes
[4] = molecular target: T2, cAMP and cAMP-inhibited cGMP 3',5'-cyclic phosphodiesterase 10A; test: Inhibition of PDE10A (unknown origin) preincubated for 20 mins followed by substrate addition and measured after 1 hr by PEDlight AMP detection reagent based luminescence assay
[5] = system: Rattus norvegicus; test: Pro-cognitive activity in MK-801-induced memory impaired Wistar rat assessed as recognition of novel location by measuring discrimination index at 0.3 to 3 mg/kg, ip preincubated for 30 mins followed by MK-801 addition for 30 mins prior to T1 phase by novel object location test; type: functional, organism-based; conditions: dose 0.3-3 mg/kg, time 60.0 min
[6] = system: Mus musculus; test: Antidepressant activity in Swiss albino mouse assessed as reduction in immobility time at 2.5 mg/kg, ip measured for last 4 mins of 6 mins test by forced swim test; type: functional; parameters: scale not given: the % may be the effect or the level left; conditions: 0.1 h
[7] = system: Mus musculus; test: Anxiolytic-like activity in Swiss albino mouse at 1.25 to 2.5 mg/kg, ip by four plate test; type: functional, organism-based; conditions: dose 1.25-2.5 mg/kg
[8] = Aqueous solubility of compound in PBS buffer at pH 7.4 by UV absorbance based analysis; type: physicochemical
[9] = system: Mus musculus; test: Anxiolytic-like activity in Swiss albino mouse at 2.5 mg/kg, ip by four plate test; type: functional, organism-based
[10] = Metabolic stability in human liver microsomes assessed as intrinsic clearance
[11] = molecular target: T3, Adrenergic receptor alpha-1 (Homo sapiens, UniProt P35348+P25100+P35368); test: Binding affinity to adrenergic alpha 1 receptor (unknown origin); type: protein assay
T3 sequence (P35348 whole entry): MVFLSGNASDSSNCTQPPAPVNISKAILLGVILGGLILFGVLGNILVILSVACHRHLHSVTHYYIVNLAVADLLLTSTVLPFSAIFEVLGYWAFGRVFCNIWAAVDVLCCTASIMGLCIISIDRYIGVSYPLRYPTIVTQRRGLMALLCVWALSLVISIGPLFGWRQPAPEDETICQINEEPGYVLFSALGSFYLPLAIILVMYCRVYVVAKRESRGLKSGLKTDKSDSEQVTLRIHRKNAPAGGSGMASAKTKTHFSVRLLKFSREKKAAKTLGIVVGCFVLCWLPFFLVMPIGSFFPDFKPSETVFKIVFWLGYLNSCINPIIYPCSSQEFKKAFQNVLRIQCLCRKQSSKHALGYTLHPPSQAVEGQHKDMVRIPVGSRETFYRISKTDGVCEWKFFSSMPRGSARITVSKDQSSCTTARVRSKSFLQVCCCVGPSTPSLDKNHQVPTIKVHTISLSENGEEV
T3 sequence (P25100 whole entry): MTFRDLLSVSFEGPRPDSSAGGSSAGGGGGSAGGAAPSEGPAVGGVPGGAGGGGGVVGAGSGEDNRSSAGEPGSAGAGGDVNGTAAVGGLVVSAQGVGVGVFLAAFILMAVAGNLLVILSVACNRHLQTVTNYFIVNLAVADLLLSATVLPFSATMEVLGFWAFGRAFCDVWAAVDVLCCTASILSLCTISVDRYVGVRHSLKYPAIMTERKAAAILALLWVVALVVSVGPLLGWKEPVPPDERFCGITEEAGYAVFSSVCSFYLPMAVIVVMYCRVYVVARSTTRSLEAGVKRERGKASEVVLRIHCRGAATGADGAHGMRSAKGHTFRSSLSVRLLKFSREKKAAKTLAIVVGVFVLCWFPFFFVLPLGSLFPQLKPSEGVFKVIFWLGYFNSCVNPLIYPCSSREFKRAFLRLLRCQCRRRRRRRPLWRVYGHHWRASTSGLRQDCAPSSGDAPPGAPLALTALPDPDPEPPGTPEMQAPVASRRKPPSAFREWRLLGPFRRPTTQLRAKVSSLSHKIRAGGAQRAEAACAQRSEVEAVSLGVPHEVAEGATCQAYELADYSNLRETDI
T3 sequence (P35368 whole entry): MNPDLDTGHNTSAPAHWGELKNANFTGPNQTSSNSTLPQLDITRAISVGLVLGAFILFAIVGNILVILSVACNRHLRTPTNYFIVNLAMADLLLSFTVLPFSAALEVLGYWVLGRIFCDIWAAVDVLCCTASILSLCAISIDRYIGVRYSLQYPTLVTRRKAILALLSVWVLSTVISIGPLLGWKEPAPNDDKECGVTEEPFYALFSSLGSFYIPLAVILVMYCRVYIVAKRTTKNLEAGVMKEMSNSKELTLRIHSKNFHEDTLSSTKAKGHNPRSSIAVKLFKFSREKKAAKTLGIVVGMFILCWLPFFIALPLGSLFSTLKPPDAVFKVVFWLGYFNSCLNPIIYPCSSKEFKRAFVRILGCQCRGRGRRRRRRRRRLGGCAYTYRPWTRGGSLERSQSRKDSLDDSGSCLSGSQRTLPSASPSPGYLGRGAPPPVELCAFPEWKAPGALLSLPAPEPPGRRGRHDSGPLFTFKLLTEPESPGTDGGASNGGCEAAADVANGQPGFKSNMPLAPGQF

[12] = Tmax in mouse hippocampus at 1.25 mg/kg, ip by LC/ESI-MS/MS analysis; type: ADME, organism-based
[13] = Tmax in mouse striatum at 1.25 mg/kg, ip by LC/ESI-MS/MS analysis; type: ADME, organism-based
[14] = Cmax in mouse striatum at 1.25 mg/kg, ip by LC/ESI-MS/MS analysis; type: ADME, organism-based; parameters: dose 1.25 mg/kg, route ip
[15] = molecular target: 5-hydroxytryptamine receptor 2A (Homo sapiens, UniProt P28223); test: Binding affinity to 5HT-2A receptor (unknown origin)
[16] = molecular target: D(2) dopamine receptor (Homo sapiens, UniProt P14416); test: Binding affinity to dopamine D2 receptor (unknown origin)
[17] = Cmax in mouse plasma at 1.25 mg/kg, ip measured up to 480 mins by LC/ESI-MS/MS analysis; type: ADME, organism-based; parameters: time < 480 min, dose 1.25 mg/kg, route ip
[18] = AUC(0 to t) in mouse hippocampus at 1.25 mg/kg, ip by LC/ESI-MS/MS analysis; type: ADME, organism-based; parameters: dose 1.25 mg/kg, route ip
[19] = Tmax in mouse plasma at 1.25 mg/kg, ip measured up to 480 mins by LC/ESI-MS/MS analysis; type: ADME, organism-based
[20] = Cmax in mouse hippocampus at 1.25 mg/kg, ip by LC/ESI-MS/MS analysis; type: ADME, organism-based; parameters: dose 1.25 mg/kg, route ip
[21] = AUC(0 to t) in mouse frontal cortex at 1.25 mg/kg, ip by LC/ESI-MS/MS analysis; type: ADME, organism-based; parameters: dose 1.25 mg/kg, route ip
[22] = AUC(0 to t) in mouse plasma at 1.25 mg/kg, ip measured up to 480 mins by LC/ESI-MS/MS analysis; type: ADME, organism-based; parameters: dose 1.25 mg/kg, time < 480 min, route ip; conditions: in vivo, 8 h
[23] = Apparent volume of distribution in mouse plasma at 1.25 mg/kg, ip measured up to 480 mins by LC/ESI-MS/MS analysis; type: ADME, organism-based
[24] = Cmax in mouse frontal cortex at 1.25 mg/kg, ip by LC/ESI-MS/MS analysis; type: ADME, organism-based; parameters: dose 1.25 mg/kg, route ip
[25] = AUC(0 to t) in mouse striatum at 1.25 mg/kg, ip by LC/ESI-MS/MS analysis; type: ADME, organism-based; parameters: dose 1.25 mg/kg, route ip
[26] = Tmax in mouse frontal cortex at 1.25 mg/kg, ip by LC/ESI-MS/MS analysis; type: ADME, organism-based
[27] = system: Mus musculus; test: Antidepressant activity in Swiss albino mouse assessed as reduction in immobility time at 5 mg/kg, ip measured for last 4 mins of 6 mins test by forced swim test; type: functional, organism-based
[28] = system: Rattus norvegicus; test: Pro-cognitive activity in MK-801-induced memory impaired Wistar rat assessed as recognition of novel location by measuring discrimination index at 1 mg/kg, ip preincubated for 30 mins followed by MK-801 addition for 30 mins prior to T1 phase by novel object location test; type: functional, organism-based; conditions: time 60.0 min
[29] = Permeability of the compound across apical to basolateral side in human Caco-2 cells at pH 6.5; type: ADME, cell-based; conditions: Caco-2, pH 6.5, read-out: permeability
[30] = Permeability of the compound across apical to basolateral side in human Caco-2 cells at pH 7.4; type: ADME, cell-based; conditions: Caco-2, pH 7.4, read-out: permeability

Ki [1] [nM]	inhibition [2] [%]	Ki [3] [nM]	Compound	further results
468	18	> 1000	COc1cc2ncnc(N3CCC(CN4CCN(c5ccc(O)cc5)CC4)C3)c2cc1OC (configuration not stated)	
			COc1cc2ncnc(N3CC[C@@H](Oc4cnc5ccccc5n4)C3)c2cc1OC	Activity [5]: Active; Activity [6]: 30%; Activity [7]: Active
245	2	355	COc1cc2ncnc(N3CCC(CN4CCN(c5ccc(Cl)c(Cl)c5)CC4)C3)c2cc1OC (configuration not stated)	
		661	COc1cc2ncnc(N3CCC(CN4CCN(c5ccccc5O)CC4)C3)c2cc1OC (configuration not stated)	IC50 [4]: 6030 nM
			COCCc1ccc(OCC(O)CNC(C)C)cc1 (configuration not stated) [METOPROLOL]	solubility [8]: 200 µM (≈ 53.5 µg/mL)
10.7	6	347	COc1cc2ncnc(N3CCC(CN4CCN(c5cccc(Cl)c5Cl)CC4)C3)c2cc1OC (configuration not stated)	
20.9	3	229	COc1cc2ncnc(N3CCC(CN4CCN(c5cccc(C(F)(F)F)c5)CC4)C3)c2cc1OC (configuration not stated)	Activity [9]: Active
		234	COc1cccc(N2CCN(CC3CCN(c4ncnc5cc(OC)c(OC)cc45)C3)CC2)c1 (configuration not stated)	microsomal CLint [10]: 292 µL/min/mg; pKi [11]: 6.58; Tmax [12]: 30 min; Tmax [13]: 30 min; Cmax [14]: 303 ng/mL; Ki [15]: > 1000 nM; Ki [16]: > 1000 nM; Cmax [17]: 13.3 ng/mL; AUC(0-t) [18]: 906 ng·h/mL; Tmax [19]: 5 min; Cmax [20]: 436 ng/mL; AUC(0-t) [21]: 726 ng·h/mL; AUCt [22]: 1164 ng·min/mL; Vd/F [23]: 0.253 L/kg; Cmax [24]: 210 ng/mL; IC50 [4]: 7080 nM; AUC(0-t) [25]: 438 ng·h/mL; Tmax [26]: 15 min
83.2	9	> 1000	O=c1[nH]c2cccc(N3CCN(Cc4cnc5ccccc5n4)CC3)c2[nH]1	
245	17	417	O=c1[nH]c2cccc(N3CCN(Cc4ccc5ccccc5n4)CC3)c2[nH]1	
		1.12	CSc1ccc2c(c1)CC(N1CCN(C)CC1)c1ccccc1S2 (configuration not stated)	
32.4	3	251	COc1cc2ncnc(N3CCC(CN4CCN(c5ccccc5)CC4)C3)c2cc1OC (configuration not stated)	Activity [27]: Active; Activity [28]: Active; Activity [9]: Active
			CNC(=C[N+](=O)[O-])NCCSCc1ccc(CN(C)C)o1 [RANITIDINE]	Papp A→B [29]: 0.3 ×10⁻⁶ cm/s; Papp A→B [30]: 0.9 ×10⁻⁶ cm/s
30.2	4	372	COc1cc2ncnc(N3CCC(CN4CCN(c5cccc(Cl)c5)CC4)C3)c2cc1OC (configuration not stated)	
8.13	11	282	COc1cc2ncnc(N3CCC(CN4CCN(c5ccccn5)CC4)C3)c2cc1OC (configuration not stated)	
251	11	> 1000	COc1cc2ncnc(N3CCC(CN4CCN(c5ncccn5)CC4)C3)c2cc1OC (configuration not stated)	
1.62	16	56.2	COc1cc2ncnc(N3CCC(CN4CCN(c5ccccc5OC)CC4)C3)c2cc1OC (configuration not stated)	
87.1		> 1000	c1cc(N2CCN(Cc3cnc4ccccc4n3)CC2)c2[nH]ncc2c1	

Compound	Ki [1] [nM]	inhibition [2] [%]	Ki [3] [nM]	further results
O=c1[nH]c2cccc(N3CCN(Cc4nc5ccccc5[nH]4)CC3)c2[nH]1	> 1000	23	> 1000	IC50 [4]: 4070 nM
c1cc(N2CCN(Cc3nc4ccccc4[nH]3)CC2)c2[nH]ncc2c1	> 1000		> 1000	
COc1cc2ncnc(N3CCC(CN4CCc5ccccc5C4)C3)c2cc1OC (configuration not stated)	> 1000	40	603	IC50 [4]: 105000 nM
c1ccc2nc(CN3CCN(c4cccc5cn[nH]c45)CC3)ccc2c1	> 1000		> 1000	
COc1cc2ncnc(N3CCN(Cc4cnc5ccccc5n4)CC3)c2cc1OC	> 1000	29	> 1000	IC50 [4]: 170000 nM
COc1cc2ncnc(N3CCN(Cc4nc5ccccc5[nH]4)CC3)c2cc1OC	> 1000	3	> 1000	
COc1cc2ncnc(N3CCN(Cc4ccc5ccccc5n4)CC3)c2cc1OC	> 1000	8	> 1000	
c1cc(N2CCN(c3cccc4cn[nH]c34)CC2)c2ncncc2c1	> 1000	3	> 1000	

— ChEMBL document CHEMBL5143617 (Eur J Med Chem, 2022)
